molecular target: AMPK; assay: AMPK activation, enzyme-linked immunosorbent assay; format: biochemical; conditions: Table 2, ELISA
Protocol: Compounds 1-54 were assayed for their ability to activate AMPK using an enzyme-linked immunosorbent assay.
Compounds 55-62 of Table 1 were assayed for their ability to activate AMPK using an enzyme-linked immunosorbent assay.
Compounds 63-66 of Table 1 were assayed for their ability to activate AMPK using an enzyme-linked immunosorbent assay.
Compounds 67-71 of Table 1 were assayed for their ability to activate AMPK using an enzyme-linked immunosorbent assay.
Compound 72 of Table 1 was assayed for its ability to activate AMPK using an enzyme-linked immunosorbent assay.

Compound | EC50 [nM]
Cn1c2c(c3cc(C(=O)NC4CCN(Cc5cccnc5)CC4)ccc31)CN(Cc1ccc(C(F)(F)F)cc1)CC2 [Compound 18, 5-methyl-N-(1-(pyridin-3-ylmethyl)piperidin-4-yl)-2-(4-(trifluoromethyl)benzyl)-2,3,4,5-tetrahydro-1H-pyrido[4,3-b]indole-8-carboxamide] | 1000 to 5000
CC(C)(C)OC(=O)N1CCC(NC(=O)c2ccc3[nH]c4c(c3c2)CN(Cc2ccc(C(F)(F)F)cc2)CC4)CC1 [Compound 6, tert-butyl 4-(2-(4-(trifluoromethyl)benzyl)-2,3,4,5-tetrahydro-1H-pyrido[4,3-b]indole-8-carboxamido)piperidine-1-carboxylate] | 500 to 1000
O=C(NC1CCN(C(=O)c2ccncc2)CC1)c1ccc2[nH]c3c(c2c1)CN(Cc1ccc(C(F)(F)F)cc1)CC3 [Compound 51, N-(1-isonicotinoyl-piperidin-4-yl)-2-(4-(trifluoromethyl)benzyl)-2,3,4,5-tetrahydro-1H-pyrido[4,3-b]indole-8-carboxamide] | 500 to 1000
O=C(NC1CCN(C(=O)c2ccc(C(F)(F)F)cc2)CC1)c1ccc2[nH]c3c(c2c1)CN(c1ccc(F)cc1)CC3 [Compound 41, 2-(4-fluorophenyl)-N-(1-(4-(trifluoromethyl)benzoyl)piperidin-4-yl)-2,3,4,5-tetrahydro-1H-pyrido[4,3-b] indole-8-carboxamide] | 10000 to 50000
CC(C)(C)OC(=O)N1CCC(NC(=O)c2ccc3[nH]c4c(c3c2)CN(c2ccc(F)cc2)CC4)CC1 [Compound 38, tert-butyl 4-(2-(4-fluorophenyl)-2,3,4,5-tetrahydro-1H-pyrido[4,3-b]indole-8-carboxamido) piperidine-1-carboxylate] | 10000 to 50000
CC(C)(C)OC(=O)N1CCC(NC(=O)c2ccc3[nH]c4c(c3c2)CN(C(=O)OCc2ccccc2)CC4)CC1 [Compound 3, benzyl 8-(1-(tert-butoxy-carbonyl)piperidin-4-ylcarbamoyl)-3,4-dihydro-1H-pyrido[4,3-b]indole-2(5H)-carboxylate] | 10000 to 50000
Cn1cnc(CN2CCC(NC(=O)c3ccc4[nH]c5c(c4c3)CN(Cc3ccc(C(F)(F)F)cc3)CC5)CC2)c1 [Compound 53, N-(1-((1-methyl-1H-imidazol-4-yl)methyl)piperidin-4-yl)-2-(4-(trifluoromethyl)benzyl)-2,3,4,5-tetrahydro-1H-pyrido[4,3-b]indole-8-carboxamide] | 10000 to 50000
NC(=O)c1ccc(CN2CCC(NC(=O)c3ccc4[nH]c5c(c4c3)CN(Cc3ccc(C(N)=O)cc3)CC5)CC2)cc1 [Compound 49, 2-(4-carbamoylbenzyl)-N-(1-(4-carbamoylbenzyl)piperidin-4-yl)-2,3,4,5-tetrahydro-1H-pyrido [4,3-b]indole-8-carboxamide] | > 100000
O=C(NC1CCN(S(=O)(=O)c2ccc(Cl)cc2)CC1)c1ccc2[nH]c3c(c2c1)CN(Cc1ccc(C(F)(F)F)cc1)CC3 [Compound 32, N-(1-(4-chlorophenyl-sulfonyl)piperidin-4-yl)-2-(4-(trifluoromethyl)benzyl)-2,3,4,5-tetrahydro-1H-pyrido[4,3-b]indole-8-carboxamide] | 1000 to 5000
O=C(NC1CCN(Cc2cccnc2)CC1)c1ccc2[nH]c3c(c2c1)CN(Cc1ccc(F)cc1)CC3 [Compound 8, 2-(4-fluorobenzyl)-N-(1-(pyridin-3-ylmethyl)piperidin-4-yl)-2,3,4,5-tetrahydro-1H-pyrido [4,3-b]indole-8-carboxamide] | 5000 to 10000

The next lines start with the values.

EC50 [nM] | Compound
< 500 | Cn1c2c(c3cc(C(=O)NC4CCN(Cc5ccc(C#N)cc5)CC4)ccc31)CN(Cc1ccc(C(F)(F)F)cc1)CC2 [Compound 16, N-(1-(4-cyanobenzyl)piperidin-4-yl)-5-methyl-2-(4-(trifluoromethyl)benzyl)-2,3,4,5-tetrahydro-1H-pyrido[4,3-b]indole-8-carboxamide]
1000 to 5000 | N#Cc1ccc(CN2CCC(NC(=O)c3ccc4[nH]c5c(c4c3)CN(Cc3ccccc3)CC5)CC2)cc1 [Compound 4, 2-benzyl-N-(1-(4-cyano-benzyl)piperidin-4-yl)-2,3,4,5-tetrahydro-1H-pyrido[4,3-b]indole-8-carboxamide]
< 500 | N#Cc1ccc(CN2CCC(NC(=O)c3ccc4[nH]c5c(c4c3)CN(Cc3ccc(C(F)(F)F)cc3)CC5)CC2)cc1 [Compound 12, N-(1-(4-cyanobenzyl)piperidin-4-yl)-2-(4-(trifluoromethyl)benzyl)-2,3,4,5-tetrahydro-1H-pyrido[4,3-b]indole-8-carboxamide]
< 500 | O=C(NC1CCN(CCc2ccccc2)CC1)c1ccc2[nH]c3c(c2c1)CN(Cc1ccc(C(F)(F)F)cc1)CC3 [Compound 14, N-(1-phenethyl-piperidin-4-yl)-2-(4-(trifluoromethyl)benzyl)-2,3,4,5-tetrahydro-1H-pyrido[4,3-b]indole-8-carboxamide]
< 500 | N#Cc1ccc(CN2CCC(NC(=O)c3ccc4[nH]c5c(c4c3)CN(Cc3ccc(F)cc3)CC5)CC2)cc1 [Compound 9, N-(1-(4-cyanobenzyl)piperidin-4-yl)-2-(4-fluorobenzyl)-2,3,4,5-tetrahydro-1H-pyrido [4,3-b]indole-8-carboxamide]

same assay, conditions: Table 3, ELISA

EC50 [nM] | Compound
100 to 500 | O=C(NC1CCN(Cc2cccnc2)CC1)c1ccc(CN2CCN(Cc3ccccc3)CC2)cc1 [Compound 60, 4-((4-benzylpiperazin-1-yl)methyl)-N-(1-(pyridin-3-ylmethyl)piperidin-4-yl) benzamide]
< 100 | N#Cc1ccc(CN2CCC(NC(=O)c3ccc(CN4CCN(Cc5ccccc5)CC4)cc3)CC2)cc1 [Compound 61, 4-((4-benzylpiperazin-1-yl)methyl)-N-(1-(4-cyanobenzyl)piperidin-4-yl)benzamide]
1000 to 10000 | O=C(NC1CCN(Cc2ccccc2)CC1)c1ccc(CN2CCN(CC3CCCCC3)CC2)cc1 [Compound 56, N-(1-benzylpiperidin-4-yl)-4-((4-(cyclohexyl-methyl)piperazin-1-yl)methyl)benzamide]

same assay, conditions: Table 4, ELISA

EC50 [nM] | Compound
1000 to 5000 | CC(C)(C)OC(=O)N1CCC(NC(=O)c2ccc3ccc(OC4CCN(c5ccc(C(F)(F)F)cc5)CC4)cc3c2)CC1 [Compound 66, tert-butyl 4-(7-(1-(4-(trifluoromethyl)phenyl)piperidin-4-yloxy)-2-naphthamido)piperidine-1-carboxylate]
< 500 | N#Cc1ccc(CN2CCC(Oc3ccc4cc(C(=O)NC5CCN(Cc6ccccc6)CC5)ccc4c3)CC2)cc1 [Compound 64, N-(1-benzylpiperidin-4-yl)-6-(1-(4-cyano-benzyl)piperidin-4-yloxy)-2-naphthamide]

same assay, conditions: Table 5, ELISA

EC50 [nM] | Compound
< 100 | N#Cc1ccc(CN2CCC(NC(=O)c3cnc4ccc(OC5CCN(c6ccc(C(F)(F)F)cc6)CC5)cc4c3)CC2)cc1 [Compound 69, N-(1-(4-cyanobenzyl)piperidin-4-yl)-6-(1-(4-(trifluoromethyl)phenyl)piperidin-4-yloxy) quinoline-3-carboxamide]
< 100 | O=C(NC1CCN(Cc2ccc(C(F)(F)F)cc2)CC1)c1cnc2ccc(OC3CCN(c4ccc(C(F)(F)F)cc4)CC3)cc2c1 [Compound 70, N-(1-(4-(trifluoromethyl)benzyl)piperidin-4-yl)-6-(1-(4-(trifluoromethyl)phenyl)piperidin-4-yloxy) quinoline-3-carboxamide]

Source: patent US8895578B2, “Carboxamide, sulfonamide and amine compounds and methods for using the same” (Rigel Pharmaceuticals, Inc., priority 2007, dated 2014)
